Experiments:
[1] = target: Phosphatidylinositol 4,5-bisphosphate 3-kinase catalytic subunit alpha isoform (Homo sapiens, UniProt P42336); test: Inhibition of PI3Kalpha (unknown origin) using PIP2 as substrate measured after 40 mins by ADP-glo plus luminescence assay
[2] = target: Poly [ADP-ribose] polymerase 2 (Homo sapiens, UniProt Q9UGN5); test: Inhibition of PARP2 (unknown origin) using biotin-NAD+ as substrate incubated for 1 hr by ELISA
[3] = target: Phosphatidylinositol 4,5-bisphosphate 3-kinase catalytic subunit gamma isoform (Homo sapiens, UniProt P48736); test: Inhibition of PI3Kgamma (unknown origin) using PIP2 as substrate measured after 1 hr by ADP-glo plus luminescence assay
[4] = target: T1, Phosphatidylinositol 4,5-bisphosphate 3-kinase catalytic subunit delta isoform (Homo sapiens, UniProt O00329); test: Inhibition of PI3Kdelta (unknown origin) using PIP2 as substrate measured after 2 hrs by ADP-glo plus luminescence assay
T1 sequence (O00329 whole entry): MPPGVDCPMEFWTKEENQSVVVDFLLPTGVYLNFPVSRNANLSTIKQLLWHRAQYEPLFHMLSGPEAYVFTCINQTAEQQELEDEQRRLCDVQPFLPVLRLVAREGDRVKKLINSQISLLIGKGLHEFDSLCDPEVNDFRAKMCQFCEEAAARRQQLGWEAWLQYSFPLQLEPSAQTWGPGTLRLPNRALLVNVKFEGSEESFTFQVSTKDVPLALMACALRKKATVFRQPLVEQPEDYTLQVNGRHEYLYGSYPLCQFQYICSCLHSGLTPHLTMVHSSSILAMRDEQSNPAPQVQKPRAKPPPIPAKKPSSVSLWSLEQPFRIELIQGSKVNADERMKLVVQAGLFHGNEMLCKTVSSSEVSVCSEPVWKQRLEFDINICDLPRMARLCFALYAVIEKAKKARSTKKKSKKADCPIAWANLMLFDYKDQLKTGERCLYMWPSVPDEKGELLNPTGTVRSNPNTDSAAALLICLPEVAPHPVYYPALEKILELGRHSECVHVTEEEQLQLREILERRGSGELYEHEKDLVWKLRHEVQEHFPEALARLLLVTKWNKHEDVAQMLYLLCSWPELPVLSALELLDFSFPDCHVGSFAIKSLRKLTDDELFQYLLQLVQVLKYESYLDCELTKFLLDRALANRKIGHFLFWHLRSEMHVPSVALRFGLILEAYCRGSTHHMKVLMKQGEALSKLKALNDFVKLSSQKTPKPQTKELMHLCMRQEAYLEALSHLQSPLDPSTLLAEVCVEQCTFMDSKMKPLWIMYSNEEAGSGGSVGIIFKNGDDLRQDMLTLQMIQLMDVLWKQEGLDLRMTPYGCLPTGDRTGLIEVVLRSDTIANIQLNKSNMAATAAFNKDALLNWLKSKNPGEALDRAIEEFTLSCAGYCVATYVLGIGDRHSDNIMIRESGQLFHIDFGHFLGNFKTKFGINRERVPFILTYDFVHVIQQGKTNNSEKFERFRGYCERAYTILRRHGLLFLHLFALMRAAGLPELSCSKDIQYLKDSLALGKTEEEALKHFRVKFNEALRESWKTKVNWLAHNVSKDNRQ

[5] = target: Serine/threonine-protein kinase mTOR (Homo sapiens, UniProt P42345); test: Inhibition of mTOR (unknown origin)
[6] = target: Phosphatidylinositol 4,5-bisphosphate 3-kinase catalytic subunit beta isoform (Homo sapiens, UniProt P42338); test: Inhibition of PI3Kbeta (unknown origin) using PIP2 as substrate measured after 1 hr by ADP-glo plus luminescence assay
[7] = target: Poly [ADP-ribose] polymerase 1 (Homo sapiens, UniProt P09874); test: Inhibition of PARP1 (unknown origin) using biotin-NAD+ as substrate incubated for 1 hr by ELISA
[8] = tested on: HCT-116; test: Antiproliferative activity against human BRCA-2 deficient HCT-116 cells assessed as reduction in cell growth incubated for 7 days by cell titer-glo assay; format: functional, cell-based; details: HCT-116, 168 h
[9] = tested on: MDA-MB-231; test: Antiproliferative activity against human BRCA proficient MDA-MB-231 cells assessed as reduction in cell growth incubated for 7 days by cell titer-glo assay; format: functional, cell-based; details: MDA-MB-231, 168 h
[10] = tested on: SW-620; test: Antiproliferative activity against human BRCA-2 proficient SW-620 cells assessed as reduction in cell growth incubated for 7 days by cell titer-glo assay; format: functional, cell-based; details: SW-620, 168 h
[11] = tested on: HCC1937; test: Antiproliferative activity against human BRCA-1 deficient HCC1937 cells assessed as reduction in cell growth incubated for 7 days by cell titer-glo assay; format: functional, cell-based; details: HCC1937, 168 h
[12] = tested on: MDA-MB-468; test: Antiproliferative activity against human BRCA proficient MDA-MB-468 cells assessed as reduction in cell growth incubated for 7 days by cell titer-glo assay; format: functional, cell-based; details: MDA-MB-468, 168 h
[13] = tested on: MDA-MB-468; test: Antitumor activity against human MDA-MB-468 cells xenografted in BALB/c mouse assessed as tumor growth inhibition at 50 mg/kg, ip once daily administered for 32 days relative to control; format: functional; details: time 32 day
[14] = tested on: MDA-MB-468; test: Antitumor activity against human MDA-MB-468 cells xenografted in BALB/c mouse assessed as tumor growth inhibition at 50 mg/kg, ip administered for 32 days along with GDC-0980 relative to control; format: functional; details: time 32 day
[15] = tested on: MDA-MB-468; test: Antitumor activity against human MDA-MB-468 cells xenografted in BALB/c mouse assessed as tumor growth inhibition at 20 mg/kg, ip once daily administered for 32 days relative to control; format: functional; details: MDA-MB-468, ip, 768 h, time 32 day, read-out: TGI
[16] = target: RAC-alpha serine/threonine-protein kinase (Homo sapiens, UniProt P31749); test: Inhibition of AKT (unknown origin)
[17] = tested on: MDA-MB-468; test: Antitumor activity against human MDA-MB-468 cells xenografted in BALB/c mouse assessed as tumor growth inhibition at 27.5 mg/kg, ip once daily administered for 32 days relative to control; format: functional; details: MDA-MB-468, ip, 768 h, time 32 day, read-out: TGI
[18] = tested on: MDA-MB-468; test: Antitumor activity against human MDA-MB-468 cells xenografted in BALB/c mouse assessed as tumor growth inhibition at 27.5 mg/kg, ip administered for 32 days along with olaparib relative to control; format: functional; details: MDA-MB-468, ip, 768 h, time 32 day, read-out: TGI
[19] = target: Voltage-gated inwardly rectifying potassium channel KCNH2 (Homo sapiens, UniProt Q12809); test: Inhibition of human ERG

Chain of Phosphatidylinositol 4,5-bisphosphate 3-kinase catalytic subunit beta isoform (P42338 whole entry, canonical isoform): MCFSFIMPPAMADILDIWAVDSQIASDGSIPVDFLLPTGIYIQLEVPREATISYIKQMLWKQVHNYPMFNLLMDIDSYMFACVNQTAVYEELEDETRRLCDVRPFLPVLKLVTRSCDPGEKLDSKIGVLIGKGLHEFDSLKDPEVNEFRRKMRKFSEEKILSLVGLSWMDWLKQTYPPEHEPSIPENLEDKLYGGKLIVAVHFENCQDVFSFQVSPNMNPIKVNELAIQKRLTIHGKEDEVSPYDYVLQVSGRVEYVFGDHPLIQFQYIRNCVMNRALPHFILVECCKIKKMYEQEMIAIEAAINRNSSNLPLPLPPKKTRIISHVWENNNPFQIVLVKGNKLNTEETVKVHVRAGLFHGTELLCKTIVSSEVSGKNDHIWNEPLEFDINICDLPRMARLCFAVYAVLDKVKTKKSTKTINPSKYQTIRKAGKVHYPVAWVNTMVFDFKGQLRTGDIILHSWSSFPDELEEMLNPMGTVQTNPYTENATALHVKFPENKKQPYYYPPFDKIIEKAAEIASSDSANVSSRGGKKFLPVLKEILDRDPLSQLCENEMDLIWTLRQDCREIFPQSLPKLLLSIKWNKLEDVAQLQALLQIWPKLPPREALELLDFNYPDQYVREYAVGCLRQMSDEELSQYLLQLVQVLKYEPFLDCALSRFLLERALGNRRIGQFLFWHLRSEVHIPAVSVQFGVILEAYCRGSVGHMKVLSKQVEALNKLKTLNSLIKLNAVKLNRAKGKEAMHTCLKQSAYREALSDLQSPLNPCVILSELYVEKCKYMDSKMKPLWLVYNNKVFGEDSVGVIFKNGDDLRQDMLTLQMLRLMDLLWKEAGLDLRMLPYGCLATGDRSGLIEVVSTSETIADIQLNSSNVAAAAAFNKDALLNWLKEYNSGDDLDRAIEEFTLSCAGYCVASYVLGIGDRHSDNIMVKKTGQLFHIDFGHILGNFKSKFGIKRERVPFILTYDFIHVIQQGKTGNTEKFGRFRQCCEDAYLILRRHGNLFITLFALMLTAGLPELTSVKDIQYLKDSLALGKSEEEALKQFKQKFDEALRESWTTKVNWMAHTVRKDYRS
Chain of Phosphatidylinositol 4,5-bisphosphate 3-kinase catalytic subunit alpha isoform (P42336 whole entry, canonical isoform): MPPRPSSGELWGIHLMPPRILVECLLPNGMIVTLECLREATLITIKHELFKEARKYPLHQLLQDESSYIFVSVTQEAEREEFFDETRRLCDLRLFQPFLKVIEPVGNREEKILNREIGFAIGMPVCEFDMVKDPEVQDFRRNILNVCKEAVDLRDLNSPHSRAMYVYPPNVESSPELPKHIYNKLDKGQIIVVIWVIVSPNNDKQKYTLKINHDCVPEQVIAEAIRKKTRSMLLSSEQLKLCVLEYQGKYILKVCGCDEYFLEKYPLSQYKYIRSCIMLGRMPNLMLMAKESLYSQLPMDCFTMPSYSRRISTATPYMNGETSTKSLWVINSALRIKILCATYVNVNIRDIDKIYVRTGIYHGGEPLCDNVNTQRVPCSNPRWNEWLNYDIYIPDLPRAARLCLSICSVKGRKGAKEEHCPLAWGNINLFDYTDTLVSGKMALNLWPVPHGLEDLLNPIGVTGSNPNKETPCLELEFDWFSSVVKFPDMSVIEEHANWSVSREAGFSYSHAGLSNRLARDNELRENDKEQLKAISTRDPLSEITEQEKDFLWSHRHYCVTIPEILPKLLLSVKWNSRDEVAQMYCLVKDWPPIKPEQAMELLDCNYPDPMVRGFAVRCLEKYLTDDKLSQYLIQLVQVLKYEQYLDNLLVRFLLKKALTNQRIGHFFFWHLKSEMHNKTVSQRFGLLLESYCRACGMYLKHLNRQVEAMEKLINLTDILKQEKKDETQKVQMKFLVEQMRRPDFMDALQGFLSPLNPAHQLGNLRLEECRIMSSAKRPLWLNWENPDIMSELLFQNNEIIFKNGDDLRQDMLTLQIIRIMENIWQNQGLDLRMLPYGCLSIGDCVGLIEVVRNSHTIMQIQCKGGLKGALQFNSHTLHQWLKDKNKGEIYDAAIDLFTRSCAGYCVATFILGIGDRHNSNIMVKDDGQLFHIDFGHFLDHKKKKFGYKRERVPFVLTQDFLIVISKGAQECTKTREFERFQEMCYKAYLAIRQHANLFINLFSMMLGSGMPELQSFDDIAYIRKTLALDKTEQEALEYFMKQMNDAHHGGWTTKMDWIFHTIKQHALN
Chain of Phosphatidylinositol 4,5-bisphosphate 3-kinase catalytic subunit gamma isoform (P48736 whole entry, canonical isoform): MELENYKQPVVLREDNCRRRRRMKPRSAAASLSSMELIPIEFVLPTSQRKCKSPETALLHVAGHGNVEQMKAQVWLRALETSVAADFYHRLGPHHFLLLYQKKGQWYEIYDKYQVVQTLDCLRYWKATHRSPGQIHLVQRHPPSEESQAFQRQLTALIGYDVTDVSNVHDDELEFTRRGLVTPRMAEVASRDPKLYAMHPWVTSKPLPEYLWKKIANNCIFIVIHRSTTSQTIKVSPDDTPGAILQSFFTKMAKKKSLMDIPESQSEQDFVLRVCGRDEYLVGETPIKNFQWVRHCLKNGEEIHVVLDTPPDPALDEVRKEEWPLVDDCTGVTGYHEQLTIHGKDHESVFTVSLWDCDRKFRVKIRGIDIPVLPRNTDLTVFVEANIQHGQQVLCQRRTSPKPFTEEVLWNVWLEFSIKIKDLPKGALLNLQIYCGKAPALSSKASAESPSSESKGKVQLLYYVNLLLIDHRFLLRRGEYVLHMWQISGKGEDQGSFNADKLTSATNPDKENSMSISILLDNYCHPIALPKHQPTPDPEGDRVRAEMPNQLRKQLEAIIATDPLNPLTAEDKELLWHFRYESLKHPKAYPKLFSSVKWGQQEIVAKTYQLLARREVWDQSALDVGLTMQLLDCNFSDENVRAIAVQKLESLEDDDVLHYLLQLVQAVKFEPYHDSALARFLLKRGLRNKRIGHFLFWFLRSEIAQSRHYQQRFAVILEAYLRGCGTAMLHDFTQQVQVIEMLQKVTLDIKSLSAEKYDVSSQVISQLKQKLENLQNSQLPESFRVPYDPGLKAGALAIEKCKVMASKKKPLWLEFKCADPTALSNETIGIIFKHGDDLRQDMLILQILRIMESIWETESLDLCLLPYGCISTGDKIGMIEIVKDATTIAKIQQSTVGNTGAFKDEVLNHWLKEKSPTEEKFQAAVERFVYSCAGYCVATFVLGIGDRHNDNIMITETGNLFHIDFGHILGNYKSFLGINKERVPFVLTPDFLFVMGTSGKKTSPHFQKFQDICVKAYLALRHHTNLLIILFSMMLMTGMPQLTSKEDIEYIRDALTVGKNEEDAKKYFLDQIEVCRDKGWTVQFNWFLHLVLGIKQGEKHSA
Chain of Poly [ADP-ribose] polymerase 1 (P09874 whole entry): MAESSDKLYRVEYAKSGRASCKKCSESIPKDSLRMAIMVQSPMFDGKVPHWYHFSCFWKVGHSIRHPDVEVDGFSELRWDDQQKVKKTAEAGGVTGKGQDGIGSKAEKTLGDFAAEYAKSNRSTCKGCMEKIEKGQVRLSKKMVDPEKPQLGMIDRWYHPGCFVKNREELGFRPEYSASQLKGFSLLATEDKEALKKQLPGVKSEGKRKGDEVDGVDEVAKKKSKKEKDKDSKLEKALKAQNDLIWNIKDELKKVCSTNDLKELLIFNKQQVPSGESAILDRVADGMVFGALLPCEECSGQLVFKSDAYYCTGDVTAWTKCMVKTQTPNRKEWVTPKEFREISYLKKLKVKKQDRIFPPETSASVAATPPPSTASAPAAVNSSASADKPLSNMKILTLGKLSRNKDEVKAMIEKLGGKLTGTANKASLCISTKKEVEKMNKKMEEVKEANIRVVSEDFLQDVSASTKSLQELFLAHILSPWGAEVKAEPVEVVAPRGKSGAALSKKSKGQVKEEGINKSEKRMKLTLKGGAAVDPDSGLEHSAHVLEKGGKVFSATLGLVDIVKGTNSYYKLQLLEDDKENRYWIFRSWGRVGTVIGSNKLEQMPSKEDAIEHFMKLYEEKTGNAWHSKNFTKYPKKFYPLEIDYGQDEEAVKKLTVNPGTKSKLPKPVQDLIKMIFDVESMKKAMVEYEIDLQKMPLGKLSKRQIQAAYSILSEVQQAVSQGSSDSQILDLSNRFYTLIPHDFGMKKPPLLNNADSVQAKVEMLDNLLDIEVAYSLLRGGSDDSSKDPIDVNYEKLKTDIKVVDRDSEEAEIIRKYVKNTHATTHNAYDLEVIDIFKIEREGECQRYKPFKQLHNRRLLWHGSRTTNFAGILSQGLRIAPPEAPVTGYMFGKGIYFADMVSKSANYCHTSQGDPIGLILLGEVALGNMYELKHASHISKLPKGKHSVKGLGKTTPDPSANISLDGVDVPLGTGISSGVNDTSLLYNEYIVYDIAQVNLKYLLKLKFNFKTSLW
Chain of Poly [ADP-ribose] polymerase 2 (Q9UGN5 whole entry, canonical isoform): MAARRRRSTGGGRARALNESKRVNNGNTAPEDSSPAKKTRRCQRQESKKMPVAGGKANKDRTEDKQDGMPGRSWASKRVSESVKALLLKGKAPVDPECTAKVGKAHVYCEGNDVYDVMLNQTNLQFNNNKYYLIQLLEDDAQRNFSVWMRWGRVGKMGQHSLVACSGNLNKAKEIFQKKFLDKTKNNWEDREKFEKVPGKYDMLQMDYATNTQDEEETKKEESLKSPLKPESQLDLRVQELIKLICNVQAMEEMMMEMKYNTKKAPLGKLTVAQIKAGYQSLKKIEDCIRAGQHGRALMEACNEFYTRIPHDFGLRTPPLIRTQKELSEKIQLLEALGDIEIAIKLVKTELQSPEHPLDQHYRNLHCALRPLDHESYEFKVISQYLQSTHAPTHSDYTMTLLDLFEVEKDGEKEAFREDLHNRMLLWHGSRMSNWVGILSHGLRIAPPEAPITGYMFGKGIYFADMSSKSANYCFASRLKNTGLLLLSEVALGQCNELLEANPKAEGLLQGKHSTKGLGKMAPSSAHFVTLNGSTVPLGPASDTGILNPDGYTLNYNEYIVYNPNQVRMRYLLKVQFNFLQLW

Structure (SMILES) | IC50 [1] [nM] | IC50 [7] [nM] | IC50 [8] [nM] | IC50 [9] [nM] | IC50 [10] [nM] | IC50 [11] [nM] | IC50 [12] [nM] | also measured
NC(=O)c1cccc2cc(C(=O)N3CCN(Cc4cc5nc(-c6cnc(N)nc6)nc(N6CCOCC6)c5s4)CC3)oc12 | 0.6 | 1.98 |  |  |  |  |  | IC50 [2]: 1.19 nM; IC50 [3]: 31 nM; IC50 [4]: 1.8 nM; IC50 [5]: 23 nM; IC50 [6]: 11 nM
Cc1c(CN2CCN(C(=O)c3cc4cccc(C(N)=O)c4o3)CC2)sc2c(N3CCOCC3)nc(-c3ccc(N)cc3F)nc12 |  | 40.1 |  |  |  |  |  | 
Cc1c(CN2CCN(C(=O)c3cc4cccc(C(N)=O)c4o3)CC2)sc2c(N3CCOCC3)nc(-c3ccc(F)c(N)c3)nc12 | 1380 | 16.7 | 5840 | > 10000 | > 10000 | 5380 | > 10000 | 
Cc1c(CN2CCN(C(=O)c3cc4cccc(C(N)=O)c4o3)CC2)sc2c(N3CCOCC3)nc(-c3cccc4[nH]ncc34)nc12 | 168 | 42.4 | 890 | 3300 | 3320 | 800 | > 10000 | 
Nc1ncc(-c2nc(N3CCOCC3)c3sc(CN4CCN(C(=O)c5cc(Cc6n[nH]c(=O)c7ccccc67)ccc5F)CC4)cc3n2)cn1 | 3.7 | 8.8 |  |  |  |  |  | 
O=C(c1cc(Cc2n[nH]c(=O)c3ccccc23)ccc1F)N1CCN(C(=O)C2CC2)CC1 [OLAPARIB] |  |  | > 10000 | > 10000 | > 10000 | > 10000 | > 10000 | TGI [13]: 27.91%; TGI [14]: 45.93%
Cc1c(CN2CCN(C(=O)c3cc4cccc(C(N)=O)c4o3)CC2)sc2c(N3CCOCC3)nc(-c3cnc(N)cc3C(F)(F)F)nc12 | 2.3 | 101 | 690 | 3170 | 3370 | 500 | 1630 | 
Cc1c(CN2CCN(C(=O)c3cc(Cc4n[nH]c(=O)c5ccccc45)ccc3F)CC2)sc2c(N3CCOCC3)nc(-c3cnc(N)nc3)nc12 | 2 | 1.5 | 310 | 1300 | 920 | 410 | 1080 | IC50 [2]: 0.89 nM; IC50 [3]: 25 nM; inhibition in vivo at 20 mg/kg [15]: 56.4%; IC50 [4]: 6.8 nM; IC50 [5]: 50 nM; IC50 [6]: 53 nM; IC50 [16]: > 100000 nM
Cc1c(CN2CCN(C(=O)c3cc4cccc(C(N)=O)c4o3)CC2)sc2c(N3CCOCC3)nc(-c3ccc(N)nc3)nc12 | 14 | 1.9 |  |  |  |  |  | 
Cc1c(CN2CCN(C(=O)c3cc(Cc4n[nH]c(=O)c5ccccc45)ccc3F)CC2)sc2c(N3CCOCC3)nc(-c3cnc(N)cc3C(F)(F)F)nc12 | 7 | 197 | 690 | 3600 | 7230 | 1080 | 2650 | 
Cc1c(CN2CCN(C(=O)c3cc4cccc(C(N)=O)c4o3)CC2)sc2c(N3CCOCC3)nc(-c3ccc(N)c(F)c3)nc12 | 1180 | 9.18 | 2320 | > 10000 | > 10000 | 3860 | > 10000 | 
Cc1c(CN2CCN(C(=O)c3cc4cccc(C(N)=O)c4o3)CC2)sc2c(N3CCOCC3)nc(-c3ccc4[nH]ccc4c3)nc12 |  | 31.7 |  |  |  |  |  | 
NC(=O)c1cccc2cc(C(=O)N3CCN(Cc4cc5nc(-c6cnc(N)nc6)nc(N6CCOCC6)c5o4)CC3)oc12 | 0.51 | 2.97 |  |  |  |  |  | IC50 [2]: 1.34 nM; IC50 [3]: 141 nM; IC50 [4]: 4.3 nM; IC50 [5]: 216 nM; IC50 [6]: 69 nM
Cc1c(CN2CCN(C(=O)[C@H](C)O)CC2)sc2c(N3CCOCC3)nc(-c3cnc(N)nc3)nc12 [APITOLISIB] |  |  | 1110 | 2460 | 1720 | 3210 | 1670 | inhibition in vivo at 27.5 mg/kg [17]: 38%; inhibition in vivo at 27.5 mg/kg [18]: 45.9%
Cc1c(CN2CCN(C(=O)c3cc4cccc(C(N)=O)c4o3)CC2)sc2c(N3CCOCC3)nc(-c3ccc4cn[nH]c4c3)nc12 | 3810 | 91.5 | 5070 | > 10000 | > 10000 | 3570 | > 10000 | 
Cc1c(CN2CCN(C(=O)c3cc4cccc(C(N)=O)c4o3)CC2)sc2c(N3CCOCC3)nc(-c3cccc4[nH]ccc34)nc12 | 1140 | 140 |  |  |  |  |  | 
Cc1c(CN2CCN(C(=O)c3cc4cccc(C(N)=O)c4o3)CC2)sc2c(N3CCOCC3)nc(-c3ccc(N)cc3)nc12 | 319 | 22.6 | 3970 | 7170 | 7980 | 4580 | 9260 | 
Cc1c(CN2CCN(C(=O)c3cc4cccc(C(N)=O)c4o3)CC2)sc2c(N3CCOCC3)nc(-c3cnc(N)nc3)nc12 | 1.5 | 0.91 | 280 | 920 | 880 | 290 | 1020 | IC50 [2]: 0.92 nM; IC50 [19]: > 30000 nM; IC50 [3]: 73 nM; inhibition in vivo at 20 mg/kg [15]: 48.8%; IC50 [4]: 2.7 nM; IC50 [5]: 12 nM; IC50 [6]: 43 nM; IC50 [16]: > 100000 nM
